Results reported in patent US7855205B2, “Pyrimidinyl substituted fused-pyrrolyl compounds useful in treating kinase disorders” (Janssen Pharmaceutica NV, priority 2004, dated 2010).

Tests used:
CDK1:Cyclin-B = target: T1, CDK1:Cyclin-B (Homo sapiens, UniProt P06493); experiment: CDK1 Screening Assay; format: biochemical; settings: 33P-γ-ATP incorporation, 10 μM ATP
T1 construct: purchased New England Biolabs, Beverly, Mass; 6020; host or cells: insect cells
Protocol: (§1) A kinase reaction mixture was prepared containing 50 mM Tris-HCl pH=8, 10 mM MgCl2, 0.1 mM […], 1 mM DTT, 10 μM ATP, 0.025 μM biotinylated histone-HI peptide substrate and […] per well ^33P-γ-ATP (2000-3000 Ci/mmol). 70 μL of the kinase reaction mixture was dispensed into the well of a streptavidin coated FlashPlate™ (Cat. # SMP103, NEN, Boston, Mass.). Then 1 μL of test compound stock in 100% DMSO was added to the wells resulting in a final concentration of 1% DMSO in the reaction with a 100 μL final reaction volume.
(§2) The CDK1:Cyclin-B protein was then diluted in 50 mM Tris-HCl pH=8.0, 0.1% BSA at a concentration of 1 ng per μL and 30 μL (30 ng enzyme per test well) was added to each well to initiate the reaction. The reaction was incubated for one hour at 30° C. At the end of the 1 h incubation, the reaction was terminated by aspirating the mixture from the plate and washing the wells twice with PBS containing 100 mM EDTA. The histone-H1 biotinylated peptide substrate became immobilized on the Flashplate™ and the incorporation of ^33P-γ-ATP was measured by reading the plate on a scintillation counter. Inhibition of the enzymatic activity of CDK1 was measured by observing a reduced amount of ^33P-γ-ATP incorporated into the immobilized peptide.
The CDK1 used was isolated from insect cells expressing both the human CDK1 catalytic subunit and its positive regulatory subunit cyclin B (New England Biolabs, Beverly, Mass., Cat. #6020).
(§3) • VEGF-R2, HER2 and (Biotin)[…]-Amide • RET kinases • CDK1 (Biotin)[…]-Amide • Aurora-A kinase Biotin-[…]-Amide

VEGF-R2 = target: T2, VEGF-R2 (Rattus norvegicus, UniProt O08775); experiment: VEGF-R2 Screening Assay; format: biochemical; settings: 33P-γ-ATP incorporation, 10 μM ATP
T2 construct: polyhistidine (N)
Protocol: as §2, with “Then 1 μL of test compound stock in 100% DMSO was added to the wells resulting in a final concentration of 1% DMSO in the reaction with a 100 μL final reaction volume. The CDK1:Cyclin-B” for “The CDK1:Cyclin-B”, “immobilized peptide. The VEGF-R kinase assay was carried out using the CDK kinase assay procedure except that the enzyme was replaced with the VEGF-R2 fusion protein containing a polyhistidine tag at the N-terminus followed by amino acids 786-1343 of the rat VEGF-R2 kinase domain (GenBank Accession #U93306).” for “immobilized peptide.”

Aurora-A = target: T3, Aurora-A (Mus musculus, UniProt P97477); experiment: Aurora-A Screening Assay; format: biochemical, murine; settings: 33P-γ-ATP incorporation, 10 μM ATP
T3 construct: made in house; host or cells: sf9 insect cells
T3 sequence (P97477 1-395): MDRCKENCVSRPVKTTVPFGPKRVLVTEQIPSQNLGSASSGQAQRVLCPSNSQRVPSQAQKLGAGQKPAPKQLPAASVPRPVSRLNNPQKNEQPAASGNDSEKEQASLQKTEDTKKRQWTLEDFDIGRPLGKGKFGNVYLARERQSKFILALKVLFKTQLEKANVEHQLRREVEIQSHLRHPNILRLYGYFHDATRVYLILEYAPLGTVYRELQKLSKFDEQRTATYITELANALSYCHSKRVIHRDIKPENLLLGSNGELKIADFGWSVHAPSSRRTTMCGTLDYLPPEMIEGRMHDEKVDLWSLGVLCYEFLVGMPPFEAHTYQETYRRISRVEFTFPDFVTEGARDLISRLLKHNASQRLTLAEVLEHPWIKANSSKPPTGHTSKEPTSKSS
Protocol: as §1, §2
The Aurora-A kinase assay was carried out using the CDK kinase assay procedure except that the enzyme was replaced with the full length protein encoding the murine Aurora-A (Accession# GB BC014711) expressed and purified from sf9 insect cells.
as §3

[1] = system: HeLa cervical adenocarcinoma; experiment: Inhibition of cell proliferation (14C-thymidine incorporation), HeLa; format: cell-based; settings: Homo sapiens;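 note: HeLa cells in 96-well scintillating plates, compound for 24 h then 24 h more with 14C-thymidine, counting label built into new DNA against DMSO-only control wells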
HCT-116 colon carcinoma = experiment: Inhibition of cell proliferation (14C-thymidine incorporation), HCT-116; format: cell-based; settings: Homo sapiens, HCT-116, HCT116
Protocol: (§4) The ability of a test compound to inhibit the proliferation of cell growth was determined by measuring incorporation of ^14C-labelled thymidine into newly synthesized DNA within the cells. This method was used on cell lines derived from carcinomas originating from several tissues such as HeLa cervical adenocarcinoma (American Type Culture Collection (ATCC), Virginia, Cat. #CCL-2), A375 malignant melanoma (ATCC CRL-1619), HCT-116 colon carcinoma (CCL-247). In this way the effect of a compound on cell growth of cells with many different phenotypes can be determined. Cells were trypsinized and counted and 3000-8000 cells were added to each well of a 96-well CytoStar tissue culture treated scintillating microplate (Amersham #RPNQ0160) in complete medium in a volume of 100 μL. Cells were incubated for 24 hours in complete medium at 37° C. in an atmosphere containing 5% CO2.
(§5) Next, 1 μL of test compound in 100% DMSO was added to the wells of the plate. DMSO only was added to control wells. Cells were incubated for 24 more hours in complete medium at 37° C. in an atmosphere containing 5% CO2. Methyl ^14C-thymidine 56 mCi/mmol (NEN #NEC568 or Amersham #CFA532) was diluted in complete medium and 0.2 uCi/well was added to each well of the CytoStar plate in a volume of 20 μl. The plate was incubated for 24 hours at 37° C. plus 5% CO2 in drug plus ^14C-thymidine. The contents of the plate discarded into a ^14C radioactive waste container by inverting the plate and the plate was washed twice with 200 μL PBS.
(§6) 200 μL of PBS is added to each well. The top of the plate was sealed with a transparent plate sealer and a white plate backing sealer (Packard #6005199) was applied to the bottom of the plate. The degree of methyl ^14C-thymidine incorporation was quantified on a Packard Top Count.

A375 malignant melanoma = experiment: Inhibition of cell proliferation (14C-thymidine incorporation), A375; format: cell-based, human; settings: Homo sapiens, A-375
Protocol: as §4, §5, §6

T1 sequence (P06493 whole entry): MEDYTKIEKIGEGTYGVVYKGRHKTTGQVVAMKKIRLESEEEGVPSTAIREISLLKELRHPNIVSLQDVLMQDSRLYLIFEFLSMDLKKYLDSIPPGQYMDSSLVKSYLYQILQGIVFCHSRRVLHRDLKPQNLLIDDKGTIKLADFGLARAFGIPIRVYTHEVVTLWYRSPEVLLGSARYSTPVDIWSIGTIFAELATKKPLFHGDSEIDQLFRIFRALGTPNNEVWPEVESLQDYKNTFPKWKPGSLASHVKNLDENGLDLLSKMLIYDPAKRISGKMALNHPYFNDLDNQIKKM
T1 sequence (P14635 whole entry partner): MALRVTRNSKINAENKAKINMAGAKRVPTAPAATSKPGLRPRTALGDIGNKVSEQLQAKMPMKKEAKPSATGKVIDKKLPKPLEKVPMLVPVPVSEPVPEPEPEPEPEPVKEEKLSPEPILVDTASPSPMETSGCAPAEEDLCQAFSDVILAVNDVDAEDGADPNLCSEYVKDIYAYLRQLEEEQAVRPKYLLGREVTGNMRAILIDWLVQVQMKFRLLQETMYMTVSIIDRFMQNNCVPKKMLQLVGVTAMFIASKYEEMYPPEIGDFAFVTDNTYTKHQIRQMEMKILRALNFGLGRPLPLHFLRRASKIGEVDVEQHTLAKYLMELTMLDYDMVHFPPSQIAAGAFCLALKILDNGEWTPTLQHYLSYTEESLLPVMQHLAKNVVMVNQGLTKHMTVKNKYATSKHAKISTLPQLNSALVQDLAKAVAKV
T2 sequence (O08775 786-1343): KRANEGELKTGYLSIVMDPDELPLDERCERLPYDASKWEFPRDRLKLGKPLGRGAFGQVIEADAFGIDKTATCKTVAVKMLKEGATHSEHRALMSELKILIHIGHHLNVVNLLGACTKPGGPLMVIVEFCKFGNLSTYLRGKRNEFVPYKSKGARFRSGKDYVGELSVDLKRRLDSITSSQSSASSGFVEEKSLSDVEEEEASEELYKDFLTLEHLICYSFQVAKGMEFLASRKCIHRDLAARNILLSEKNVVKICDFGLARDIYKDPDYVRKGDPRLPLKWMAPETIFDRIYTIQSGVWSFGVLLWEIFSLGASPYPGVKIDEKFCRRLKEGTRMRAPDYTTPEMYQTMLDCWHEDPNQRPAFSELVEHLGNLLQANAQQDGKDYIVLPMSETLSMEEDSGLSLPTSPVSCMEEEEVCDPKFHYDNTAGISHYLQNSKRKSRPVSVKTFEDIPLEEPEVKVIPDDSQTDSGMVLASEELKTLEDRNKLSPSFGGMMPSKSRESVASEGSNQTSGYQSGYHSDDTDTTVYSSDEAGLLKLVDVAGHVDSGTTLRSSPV

| SMILES | IC50 (CDK1:Cyclin-B) [µM] | IC50 (VEGF-R2) [µM] | IC50 (Aurora-A) [µM] | IC50 [1] [µM] | IC50 (HCT-116 colon carcinoma) [µM] | IC50 (A375 malignant melanoma) [nM] |
| --- | --- | --- | --- | --- | --- | --- |
| c1cnc2[nH]cc(-c3ccnc(NC4CCCC4)n3)c2c1 [Cpd 14, Cyclopentyl-[4-(1H-pyrrolo[2,3-b]pyridin-3-yl)-pyrimidin-2-yl]-amine] | 0.088 | 2.23 | 0.885 | 0.059 | 0.078 | 93 |
| c1cnc2[nH]cc(-c3ccnc(NCC4CCCCC4)n3)c2c1 [Cpd 16, Cyclohexylmethyl-[4-(1H-pyrrolo[2,3-b]pyridin-3-yl)-pyrimidin-2-yl]-amine] | 0.151 | 10 | 0.636 | 0.368 | 0.41 | 604 |
| O[C@H]1CC[C@H](Nc2nccc(-c3c[nH]c4ncccc34)n2)CC1 [Cpd 18, trans-4-[4-(1H-Pyrrolo[2,3-b]pyridin-3-yl)-pyrimidin-2-ylamino]-cyclohexanol] | 0.0076 | 1.79 | 0.335 | 0.00161 | 0.00225 | 1.77 |
| FC(F)(F)c1ccccc1Nc1nccc(-c2c[nH]c3ncccc23)n1 [Cpd 29, (2-trifluoromethylphenyl)-[4-(1H-pyrrolo[2,3-b]pyridin-3-yl)-pyrimidin-2-yl]-amine] | 0.056 | 1.97 | 1 | 0.392 | 0.381 | 403 |
| Oc1ccccc1Nc1nccc(-c2c[nH]c3ncccc23)n1 [Cpd 30, (2-Hydroxyphenyl)-[4-(1H-pyrrolo[2,3-b]pyridin-3-yl)-pyrimidin-2-yl]-amine] | 0.139 | 0.049 | 0.289 | 0.956 | 0.652 | 1650 |
| Fc1ccccc1Nc1nccc(-c2c[nH]c3ncccc23)n1 [Cpd 31, (2-Fluorophenyl)-[4-(1H-pyrrolo[2,3-b]pyridin-3-yl)-pyrimidin-2-yl]-amine] | 0.046 | 1 | 0.1 | 0.0992 | 0.105 | 110 |
| CCc1ccccc1Nc1nccc(-c2c[nH]c3ncccc23)n1 [Cpd 32, (2-Ethylphenyl)-[4-(1H-pyrrolo[2,3-b]pyridin-3-yl)-pyrimidin-2-yl]-amine] | 0.068 | 1.47 | 0.396 | 0.292 | 0.254 | 217 |
| Oc1ccc(Nc2nccc(-c3c[nH]c4ncccc34)n2)cc1 [Cpd 39, (4-Hydroxyphenyl)-[4-(1H-pyrrolo[2,3-b]pyridin-3-yl)-pyrimidin-2-yl]-amine] | 0.168 | 1.66 | 0.735 | 0.384 | 0.242 | 862 |
| Cc1cc(CCN(C)C)ccc1Nc1nccc(-c2c[nH]c3ncccc23)n1 [Cpd 46] | 0.0016 | 0.341 | 0.466 | 0.000963 | 0.000545 | 0.634 |
| Cc1cc(CCN2CCN(C)CC2)ccc1Nc1nccc(-c2c[nH]c3ncccc23)n1 [Cpd 51, {4-[2-(4-Methylpiperizin-1-yl)ethyl]-2-methylphenyl}-[4(1H-pyrrolo[2,3-b]pyridin-3-yl)-pyrimidin-2-yl]-amine] | 0.0026 | 1.25 | 0.895 | 0.00466 | 0.00361 | 3.52 |

Continued by falling IC50 (CDK1:Cyclin-B), values first:

| IC50 (CDK1:Cyclin-B) [µM] | IC50 (VEGF-R2) [µM] | IC50 (Aurora-A) [µM] | IC50 [1] [µM] | IC50 (HCT-116 colon carcinoma) [µM] | IC50 (A375 malignant melanoma) [nM] | SMILES |
| --- | --- | --- | --- | --- | --- | --- |
| 0.0127 | 1 | 0.175 | 0.0952 | 0.118 | 67.6 | Brc1ccccc1Nc1nccc(-c2c[nH]c3ncccc23)n1 [Cpd 28, (2-Bromophenyl)-[4-(1H-pyrrolo[2,3-b]pyridin-3-yl)-pyrimidin-2-yl]-amine] |
| 0.012 | 2.11 | 0.166 | 0.0082 | 0.00756 | 4.67 | c1cnc2[nH]cc(-c3ccnc(NC4CCCCCC4)n3)c2c1 [Cpd 15, Cycloheptyl-[4-(1H-pyrrolo[2,3-b]pyridin-3-yl)-pyrimidin-2-yl]-amine] |
| 0.0063 | 1.64 | 0.182 | 0.0101 | 0.0132 | 42 | Cc1cc(Br)ccc1Nc1nccc(-c2c[nH]c3ncccc23)n1 [Cpd 41, (4-Bromo-2-methylphenyl)-[4-(1H-pyrrolo[2,3-b]pyridin-3-yl)-pyrimidin-2-yl]-amine] |
| 0.004 | 0.618 | 0.238 | 0.0114 | 0.00137 | 15.7 | Cc1cccc(Nc2nccc(-c3c[nH]c4ncccc34)n2)c1C [Cpd 34, (2,3-Dimethylphenyl)-[4-(1H-pyrrolo[2,3-b]pyridin-3-yl)-pyrimidin-2-yl]-amine] |
| 0.002 | 1 | 0.357 | 0.0072 | 0.00639 | 4.5 | COc1ccc(Nc2nccc(-c3c[nH]c4ncccc34)n2)c(C)c1 [Cpd 27, (4-Methoxy-2-methylphenyl)-[4-(1H-pyrrolo[2,3-b]pyridin-3-yl)-pyrimidin-2-yl]-amine] |
| 0.002 | 7.88 | 0.917 | 0.00112 | 0.000353 | 0.743 | N[C@H]1CC[C@H](Nc2nccc(-c3c[nH]c4ncccc34)n2)CC1 [Cpd 42, trans-N-[4-(1H-Pyrrolo[2,3-b]pyridin-3-yl)-pyrimidin-2-yl]-cyclohexane-1,4-diamine] |
| 0.001 | 1.14 | 0.408 | 0.000993 | 0.000542 | 0.0467 | Cc1ccc(Nc2nccc(-c3c[nH]c4ncccc34)n2)c(C)c1 [Cpd 33, (2,4-Dimethylphenyl)-[4-(1H-pyrrolo[2,3-b]pyridin-3-yl)-pyrimidin-2-yl]-amine] |
